Experimental data as given in publication PMC10142505, “Synthesis, Evaluation of Enzyme Inhibition and Redox Properties of Potential Dual COX-2 and 5-LOX Inhibitors” (Pharmaceuticals, 2023).

Biological target: T1, COX-1 ovine enzyme (Ovis aries, UniProt P05979)
T1 construct: purchased Abcam ab204698
T1 sequence (P05979 25-600): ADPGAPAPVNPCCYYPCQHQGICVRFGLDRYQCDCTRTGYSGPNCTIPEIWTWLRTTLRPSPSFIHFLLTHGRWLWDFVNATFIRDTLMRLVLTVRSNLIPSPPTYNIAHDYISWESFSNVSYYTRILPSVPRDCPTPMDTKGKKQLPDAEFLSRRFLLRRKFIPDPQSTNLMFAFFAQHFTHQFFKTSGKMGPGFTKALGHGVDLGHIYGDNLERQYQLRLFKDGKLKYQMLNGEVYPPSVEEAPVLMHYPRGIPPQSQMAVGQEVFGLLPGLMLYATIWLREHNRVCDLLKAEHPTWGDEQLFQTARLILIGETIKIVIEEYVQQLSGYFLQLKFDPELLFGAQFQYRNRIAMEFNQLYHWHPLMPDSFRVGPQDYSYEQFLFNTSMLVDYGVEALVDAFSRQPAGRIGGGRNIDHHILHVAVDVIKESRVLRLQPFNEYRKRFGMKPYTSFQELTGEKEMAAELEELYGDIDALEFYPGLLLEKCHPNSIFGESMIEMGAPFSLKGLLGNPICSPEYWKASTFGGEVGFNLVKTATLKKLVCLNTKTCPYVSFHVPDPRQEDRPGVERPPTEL
Experiment: Fluorometric COX-1 inhibitor screening kit
Type: biochemical
Conditions: for inhibition at 100 µM: at 100 µM concentration; for IC50: fluorometric kit
Description: The COX-1 and COX-2 inhibitory activates of the synthesized compounds were tested using fluorometric COX-1 (Catalog Number: ab204698) and COX-2 (Catalog Number: ab283401) inhibitor screening kits (Abcam, United Kingdom). These assays are based on the fluorometric detection of Prostaglandin G2, generated by the COX enzyme. The experiment was conducted according to the manufacturer’s instructions. Each assay consists of a COX Assay Buffer, COX Probe (in DMSO), COX Cofactor (in DMSO), arachidonic acid and NaOH. The COX-1 inhibitor screening kit contains COX-1 ovine enzyme and COX-1 inhibitor SC560 (dissolved in DMSO), while the COX-2 inhibitor screening kit contains COX-2 human recombinant enzyme and COX-2 inhibitor Celecoxib (dissolved in DMSO). The tested compounds were dissolved in DMSO and further diluted five times with the COX Assay Buffer. The Inhibitor Control (IC) was prepared by adding 2 µL of COX-1/COX-2 inhibitor and 8 µL of COX Assay Buffer into assigned wells, while the Solvent Control (SC) was prepared by adding 2 µL of DMSO and 8 µL of COX Assay Buffer into assigned wells and the Sample (S) and Enzyme Control (EC) were prepared by adding 10 µL of diluted tested compounds or COX Assay Buffer into assigned wells. The Reaction Master Mix (COX Assay Buffer, COX Probe, Diluted COX Cofactor and COX-1/COX-2 Enzyme) was prepared according to instructions and 80 µL of the Reaction Master Mix was added into each well. Meanwhile, a diluted arachidonic acid/NaOH solution was prepared and 10 µL was added into each well using a multi-channel pipette to initiate all the reactions at the same time. The fluorescence values (Ex/Em = 535/587 nm) of the samples were kinetically measured at 25 °C for 5–10 min. The EC, SC, IC and tested compounds at all concentrations were analyzed in triplicates. Two points (T1 and T2) in the linear range of the plot were chosen and corresponding fluorescence values (RFU1 and RFU2) were obtained. The slope for all samples was calculated by dividing ΔRFU (RFU2-RFU1) by time Δt (T2−T1). The percentage of inhibition was calculated as follows: % Relative Inhibition=Slope of EC−Slope of S/Slope of EC∗100
Fluorescence measurements were performed on a BioTek Synergy LX multi-mode reader (Winooski, VT, USA).

Structure (SMILES)	inhibition at 100 µM	IC50
COc1ccc2c(c1)c(CNC(=O)NO)c(C)n2C(=O)c1ccc(Cl)cc1 [Compound 1, N’-hydroxy-N-[(1-(4-chlorobenzoyl)-5-methoxy-2-methyl-3-indolyl)methyl]urea]	< 50%	> 100 µM
CC(NC(=O)NO)c1ccc(-c2ccccc2)c(F)c1 (centres unmarked) [Compound 2]	< 50%	> 100 µM
O=C(NO)NCc1ccccc1Nc1c(Cl)cccc1Cl [Compound 3, N’-hydroxy-N-[(2-(2,6-dichloroanilino)phenyl)methyl]urea]	< 50%	> 100 µM
COC(=O)CNC(=O)c1cc(C(C)(C)C)c(O)c(C(C)(C)C)c1 [Compound 5, (3,5-di-tert-butyl-4-hydroxy-benzoylamino)-acetic acid methyl ester]	< 50%	> 100 µM
C=CCNC(=O)c1cc(C(C)(C)C)c(O)c(C(C)(C)C)c1 [Compound 6, N-allyl-3,5-di-tert-butyl-4-hydroxy-benzamide]	< 50%	> 100 µM
CC(=O)N(O)C(C)c1ccc(CC(C)C)cc1 (centres unmarked) [Compound 11]	< 50%	> 100 µM
COc1ccc2cc(C(C)N(O)C(C)=O)ccc2c1 (centres unmarked) [Compound 12, N-hydroxy-N-[1-(6-methoxy-naphthalen-2-yl)-ethyl]-acetamide]	< 50%	> 100 µM
